Patent US20040052879A1, “Method for the extraction of pharmaceutically active products from spermatophyte plants, products thus obtained and their use in the medical field, in particular as substances with anti-tumoral activity” (priority 2000, published 2004)
≈ marks a conversion by molar mass, not a printed value.

How the values were obtained:
[1] = tested on: HT-29 cells (colorectal adenocarcinoma); assay: Cellular cycle analysis of HT-29 cells by flow cytometry; type: cell-based; conditions: only after 48 h incubation
Method: The cells have been resuspended in a concentration of 1×10^6/ml and incubated for different periods of time and with various doses of each substance. At the end of the incubation period the cells have been fixed in acetone/methanol 1:4, treated with 100 KU/ml of RNase and marked with propydium iodide (50 mcg/ml). The various stages of the cellular cycle have then been analyzed by means of flow cytometry with a cytometer FACscan using a suitable statistic program. For these cells the effects on the cellular cycle (FIG. 12) are evident only after 48 h of incubation starting from a dose of 10 mcg/ml and consist in a block of the cellular cycle on G1-S/G2M level.

[2] = tested on: M14 cells (malignant melanoma); assay: Cellular cycle analysis of M14 cells by flow cytometry; type: cell-based; conditions: for induction of cell accumulation in stage G1/S: 72 h, lowest dose (2.5 mcg/ml)
Method: The cells have been resuspended in a concentration of 1×10^6/ml and incubated for different periods of time and with various doses of each substance. At the end of the incubation period the cells have been fixed in acetone/methanol 1:4, treated with 100 KU/ml of RNase and marked with propydium iodide (50 mcg/ml). The various stages of the cellular cycle have then been analyzed by means of flow cytometry with a cytometer FACscan using a suitable statistic program. […] Indeed, after only 24 h of cell incubation with C-Res and starting from a dose of 1.25 mcg/ml, a significant block of the cellular cycle on S/G2M level can be observed, with the consequent increase of the percentage of cells in S stage. Said block remains, at higher doses, constant for the following hours.

[3] = tested on: M14 cells (malignant melanoma); assay: Apoptosis of M14 cells by flow cytofluorometry (PI DNA content); type: cell-based
Method: The cells have been resuspended in a concentration of 1×10^6/ml and incubated for different periods of time and with various doses of each substance. At the end of the incubation period the cells have been fixed in acetone/methanol 1:4, treated with 100 KU/ml of RNase and marked with propydium iodide (50 mcg/ml). The cells have then been analyzed by means of flow cytofluorometry using a cytometer FACscan. […] Said effect is indeed particularly significant starting from a dose of 20 mcg/ml and the peak of activity can be observed after 48 h. An activity having a similar course is performed by C-Res on cell mortality (FIG. 3), even though for said parameter the percentages of cells reacting to the action of the drug are extremely higher.

[4] = tested on: HT-29 cells (colorectal adenocarcinoma); assay: Cell growth of HT-29 cells; type: cell-based; conditions: until 72 hours
Method: (§1) During the experiments a series of cell lines originating from different types of tumors has been used. All cell lines have been grown and kept in a RPMI-1640 medium added with 10% fetal calf serum (FCS) and 1% penicillin-streptomycin. The substances according to the invention have been dissolved in dimethyl-sulfoxide (DMSO) at an initial concentration of 100 mM and added to the cell cultures in the concentrations indicated. DMSO alone has been added to control cultures. The cells placed on a microplate in a concentration of 1×10^5/ml have been incubated with various doses of each substance and for different periods of time. At the end of the treatment cell replication has been evaluated by a cellular count carried out using a Coulter Counter.

[5] = tested on: HT-29 cells (colorectal adenocarcinoma); assay: Cell mortality of HT-29 cells; type: cell-based; conditions: all doses (5-40 mcg/ml)
Method: (§2) The cells placed on a microplate in a concentration of 1×10^5/ml have been incubated with various doses of each substance and for different periods of time. At the end of the treatment cell mortality has been evaluated by a cellular count in trypan blue and/or by flow cytometry using a cytometer FACscan (Becton-Dickinson), determining the vitality of unfixed cells which have been marked with propydium iodide (PI). […] For all doses the peak of activity is detected after 48 hours of incubation.

[6] = tested on: PAR-MEL cells (malignant melanoma resisting to chemotherapeutic treatments); assay: Cell replication of PAR-MEL cells; type: cell-based
Method: as §1

[7] = tested on: PAR-MEL cells (malignant melanoma resisting to chemotherapeutic treatments); assay: Cell mortality of PAR-MEL cells; type: cell-based; conditions: 40 mcg/ml
Method: as §2, with “Only for” for “For all doses”, “dose” for “peak”, “40 mcg/ml the plateau” for “activity”, “reached” for “detected”, “only 24 h” for “48 hours”

[8] = tested on: M14 cells (malignant melanoma); assay: Cell replication of M14 cells (Coulter Counter count); type: cell-based; conditions: for IC50: Homo sapiens, 72 h incubation, read-out: concentration inhibiting 50% of cell replication (CI50)
Method: as §1, with “Counter. Cells belonging to the M14 tumor line (malignant melanoma) have been incubated for various periods of time with 1.25, 2.5, 5, 10, 20, 40 and 80 mcg/ml of cis-resveratrol (C-Res), or DMSO alone as far as controls are concerned.” for “Counter.”

[9] = tested on: HT-29 cells (colorectal adenocarcinoma); assay: Apoptosis of HT-29 cells by flow cytofluorometry (PI DNA content); type: cell-based; conditions: 5 mcg/ml, all times of incubation (24, 48, 72 h)
Method: The cells have been resuspended in a concentration of 1×10^6/ml and incubated for different periods of time and with various doses of each substance. At the end of the incubation period the cells have been fixed in acetone/methanol 1:4, treated with 100 KU/ml of RNase and marked with propydium iodide (50 mcg/ml). The cells have then been analyzed by means of flow cytofluorometry using a cytometer FACscan. […] For all other doses an increase of the effect related to the time of incubation can be observed.

[10] = Stability of the active agent in culture medium (HPLC/GC quantification); type: physicochemical; conditions: for halving time in culture medium: culture medium of ex. 10 (RPMI-1640, 10% FCS); for amount still present at the end of the test: culture medium of ex. 10, 72 h
Method: As far as resveratrols are concerned, they can be obtained with two alternative techniques, HPLC or GC. For both techniques quantification is carried out with the internal standard method. The compound we have found to be optimal is trans4-hydroxy-stilbene, commercially available.
For HPLC the reference method with reverse-phase column can be applied, with detection at 310 nm for trans isomers and at 282 for cis isomer (Mattivi F. Solid phase extraction of trans-resveratrol from wines for HPLC analysis. Zeftschrift für Lebensmittel-Untersuchung und Forschung, 1993, 196, 522-525). The instrumental conditions are the same as those described above for viniferine. The coefficient of molar extinction of both glucosides is almost the same as the one of the corresponding aglycones, so that they can be determined as such after carrying out a correction for molecular weights (Mattivi et al. Isolation, characterization, and evolution in red wine vinification of resveratrol monomers, J. Agric. Food Chem., 1995, 43, 7, 1820-1823).
If a preparation for aqueous or hydroalcoholic matrixes is necessary, the injection should be preceded by a pre-purification step on reverse-phase cartridges according to Mattivi F. Solid phase extraction of trans-resveratrol from wines for HPLC analysis. Zeitschrift für Lebensmittel-Untersuchung und Forschung, 1993, 196, 522-525. In addition to what is contained in the aforesaid document, it has been verified that the method is suitable for all monomer stilbenes, both free and glucosides, and that the eluted fraction of ethyl acetate can be dried under a mild flow of nitrogen, in case it is necessary to carry out the exchange in another solvent and/or to further reduce the limits of quantification.
Said techniques can be used for instance to control the stability of the active agent in culture mediums, and therefore to support in vitro experimental models which are going to be described in the following examples. For instance, for the culture means described in ex.
During the experiments a series of cell lines originating from different types of tumors has been used. All cell lines have been grown and kept in a RPMI-1640 medium added with 10% fetal calf serum (FCS) and 1% penicillin-streptomycin.

[11] = tested on: PAR-MEL cells (malignant melanoma resisting to chemotherapeutic treatments); assay: Apoptosis of PAR-MEL cells by flow cytofluorometry (PI DNA content); type: cell-based; conditions: 40 mcg/ml, 72 h incubation
Method: The cells have been resuspended in a concentration of 1×10^6/ml and incubated for different periods of time and with various doses of each substance. At the end of the incubation period the cells have been fixed in acetone/methanol 1:4, treated with 100 KU/ml of RNase and marked with propydium iodide (50 mcg/ml). The cells have then been analyzed by means of flow cytofluorometry using a cytometer FACscan.

[12] = tested on: PAR-MEL cells (malignant melanoma resisting to chemotherapeutic treatments); assay: Cellular cycle analysis of PAR-MEL cells by flow cytometry; type: cell-based; conditions: after 24 h incubation
Method: The cells have been resuspended in a concentration of 1×10^6/ml and incubated for different periods of time and with various doses of each substance. At the end of the incubation period the cells have been fixed in acetone/methanol 1:4, treated with 100 KU/ml of RNase and marked with propydium iodide (50 mcg/ml). The various stages of the cellular cycle have then been analyzed by means of flow cytometry with a cytometer FACscan using a suitable statistic program. As far as the effects on the cellular cycle (FIG. 8) are concerned, after only 24 h of incubation of PAR-MEL cells with C-Res and starting from a dose of 5 mcg/ml, a significant block of the cellular cycle on G1-S/G2M level can be observed, with a consequent increase in the percentage of cells in S stage and at higher doses in G1 stage. Said block remains constant for the following hours.

In the case of `Oc1ccc(/C=C\c2cc(O)cc(O)c2)cc1` [C-Res, cis-resveratrol], the “dose from which block of the cellular cycle on G1-S/G2M level is evident” value [1] is reported as at least 10 µg/mL, the “induction of cell accumulation in stage G1/S” value [2] is reported as “could induce cell accumulation in stage G1/S” and the “dose from which significant block of the cellular cycle on S/G2M level is observed” value ([2]; after 24 h incubation) is reported as at least 1.25 µg/mL. For the same compound, the “dose from which increase in apoptotic cells is particularly significant” value [3] was at least 20 µg/mL, the “time of peak of apoptotic activity” value [3] was 48 h and the “inhibition of tumor growth” value ([4]; 5 and 10 mcg/ml) was “does not induce any significant effect”. For the same compound, the “inhibition of tumor growth” value ([4]; 20 mcg/ml) was “partial”, the “inhibition of tumor growth” value ([4]; 40 mcg/ml) was “complete” and the “time of peak of activity on cell mortality” value [5] was 48 h. The “effect on cell replication” value ([6]; dose 20 and 40 mcg/ml) was “cytotoxic activity”, the “effect on cell replication” value ([6]; dose range 5 and 10 mcg/ml) was “significant cytostatic activity” and the “time at which plateau of cell mortality is reached” value [7] was 24 h. For the same compound, the IC50 [8] was 2.7 µg/mL (≈ 11.8 µM), the “effect on cell growth” value ([8]; all tested doses (1.25-80 mcg/ml)) was “can inhibit cell growth” and the “effect on cell replication” value ([8]; dose 40 mcg/ml) was “cytotoxic activity”. For the same compound, the “effect on cell replication” value ([8]; dose range 5-20 mcg/ml) was “significant cytostatic activity”, the “apoptosis (peaks of hypodiploidy)” value [9] was “absence of measurable peaks of hypodiploidy” and the “halving time in culture medium” value [10] was 38 h. The “amount still present at the end of the test” value [10] was “about 25%”, the cells in apoptosis [11] was 50% and the “dose from which significant block of the cellular cycle on G1-S/G2M level is observed” value [12] was at least 5 µg/mL.
In the case of `Oc1ccc(/C=C/c2cc(O)cc(O)c2)cc1` [T-Res, trans-resveratrol, reference compound], the “induction of cell accumulation in stage G1/S” value [2] is reported as “not”, the IC50 [8] is reported as 31.6 µg/mL (≈ 138 µM) and the “halving time in culture medium” value [10] is reported as 28 h. The “amount still present at the end of the test” value [10] was “not present as such”.
